# Results from the supplement of paper PMC10307832.
# Experiments:
# Assay in all cases: relative viability (nuclei count vs DMSO), 5 days (fraction); higher = more cells survive
# CAL-12T = tested on: CAL-12T
# Method in brief: (§1)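 Medians of duplicate plates are given as relative viability. That measure is the nuclei count in treated wells divided by the count in vehicle wells. Counts were taken on 4× images of lung cancer cell lines in 1536-well plates, 5 days after pin-tool dosing the day after seeding with one drug alone or a fixed anchor-drug dose plus five library-drug doses (not always all listed) in √10 steps.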
# BEN = tested on: BEN
# Method in brief: as §1
# NCI-H520 = tested on: NCI-H520
# Method in brief: as §1
# NCI-H2023 = tested on: NCI-H2023
# Method in brief: as §1
# NCI-H1650 = tested on: NCI-H1650
# Method in brief: as §1
# NCI-H1944 = tested on: NCI-H1944
# Method in brief: as §1
# NCI-H1915 = tested on: NCI-H1915
# Method in brief: as §1
# NCI-H727 = tested on: NCI-H727
# Method in brief: as §1
# 201T = tested on: 201T
# Method in brief: as §1
# NCI-H661 = tested on: NCI-H661
# Method in brief: as §1
# PC-3 [JPC-3] = tested on: PC-3 [JPC-3]
# Method in brief: as §1
# A-427 = tested on: A-427
# Method in brief: as §1
# NCI-H460 = tested on: NCI-H460
# Method in brief: as §1
# NCI-H441 = tested on: NCI-H441
# Method in brief: as §1
# LCLC-97TM1 = tested on: LCLC-97TM1
# Method in brief: as §1
# LC-2-ad = tested on: LC-2-ad
# Method in brief: as §1
# ABC-1 = tested on: ABC-1
# Method in brief: as §1
# NCI-H596 = tested on: NCI-H596
# Method in brief: as §1
# H3255 = tested on: H3255
# Method in brief: as §1
# NCI-H650 = tested on: NCI-H650
# Method in brief: as §1
# NCI-H1651 = tested on: NCI-H1651
# Method in brief: as §1
# NCI-H1792 = tested on: NCI-H1792
# Method in brief: as §1
# NCI-H2087 = tested on: NCI-H2087
# Method in brief: as §1
compound,measurement,setting,value
CC1(C)CCC(c2ccc(Cl)cc2)=C(CN2CCN(c3ccc(C(=O)NS(=O)(=O)c4ccc(N[C@H](CCN5CCOCC5)CSc5ccccc5)c(S(=O)(=O)C(F)(F)F)c4)cc3)CC2)C1 [Navitoclax] + C[C@@H](Oc1cc(-c2cnn(C3CCNCC3)c2)cnc1N)c1c(Cl)ccc(F)c1Cl [Crizotinib] (partner 1 µM),relative viability,CAL-12T; first compound 0.005 µM,0.589
same,relative viability,CAL-12T; first compound 0.01581 µM,0.653
same,relative viability,CAL-12T; first compound 0.05 µM,0.725
same,relative viability,CAL-12T; first compound 0.1581 µM,0.744
same,relative viability,CAL-12T; first compound 0.5 µM,0.536
same,relative viability,BEN; first compound 0.005 µM,0.878
same,relative viability,BEN; first compound 0.01581 µM,0.897
same,relative viability,BEN; first compound 0.05 µM,0.936
same,relative viability,BEN; first compound 0.1581 µM,0.944
same,relative viability,BEN; first compound 0.5 µM,0.662
same,relative viability,NCI-H520; first compound 0.005 µM,0.751
same,relative viability,NCI-H520; first compound 0.01581 µM,0.715
same,relative viability,NCI-H520; first compound 0.05 µM,0.762
same,relative viability,NCI-H520; first compound 0.1581 µM,0.737
same,relative viability,NCI-H520; first compound 0.5 µM,0.79
same,relative viability,NCI-H2023; first compound 0.005 µM,0.668
same,relative viability,NCI-H2023; first compound 0.01581 µM,0.65
same,relative viability,NCI-H2023; first compound 0.05 µM,0.694
same,relative viability,NCI-H2023; first compound 0.1581 µM,0.738
same,relative viability,NCI-H2023; first compound 0.5 µM,0.662
same,relative viability,NCI-H1650; first compound 0.005 µM,0.995
same,relative viability,NCI-H1650; first compound 0.01581 µM,1.13
same,relative viability,NCI-H1650; first compound 0.05 µM,1.17
same,relative viability,NCI-H1650; first compound 0.1581 µM,0.938
same,relative viability,NCI-H1650; first compound 0.5 µM,0.667
same,relative viability,NCI-H1944; first compound 0.005 µM,1.05
same,relative viability,NCI-H1944; first compound 0.01581 µM,1.13
same,relative viability,NCI-H1944; first compound 0.05 µM,0.798
same,relative viability,NCI-H1944; first compound 0.1581 µM,1.14
same,relative viability,NCI-H1944; first compound 0.5 µM,1.03
same,relative viability,NCI-H1915; first compound 0.005 µM,0.915
same,relative viability,NCI-H1915; first compound 0.01581 µM,0.881
same,relative viability,NCI-H1915; first compound 0.05 µM,0.877
same,relative viability,NCI-H1915; first compound 0.1581 µM,0.879
same,relative viability,NCI-H1915; first compound 0.5 µM,0.858
same,relative viability,NCI-H727; first compound 0.005 µM,0.692
same,relative viability,NCI-H727; first compound 0.01581 µM,1.11
same,relative viability,NCI-H727; first compound 0.1581 µM,0.797
same,relative viability,NCI-H727; first compound 0.5 µM,0.73
same,relative viability,201T; first compound 0.005 µM,1.03
same,relative viability,201T; first compound 0.01581 µM,1.05
same,relative viability,201T; first compound 0.05 µM,0.975
same,relative viability,201T; first compound 0.1581 µM,1.04
same,relative viability,201T; first compound 0.5 µM,1.03
same,relative viability,NCI-H661; first compound 0.005 µM,1.12
same,relative viability,NCI-H661; first compound 0.01581 µM,0.964
same,relative viability,NCI-H661; first compound 0.05 µM,0.947
same,relative viability,NCI-H661; first compound 0.1581 µM,0.951
same,relative viability,NCI-H661; first compound 0.5 µM,1
same,relative viability,PC-3 [JPC-3]; first compound 0.005 µM,1.01
same,relative viability,PC-3 [JPC-3]; first compound 0.01581 µM,0.986
same,relative viability,PC-3 [JPC-3]; first compound 0.05 µM,0.927
same,relative viability,PC-3 [JPC-3]; first compound 0.1581 µM,0.991
same,relative viability,PC-3 [JPC-3]; first compound 0.5 µM,0.963
same,relative viability,A-427; first compound 0.005 µM,0.828
same,relative viability,A-427; first compound 0.01581 µM,0.948
same,relative viability,A-427; first compound 0.05 µM,0.652
same,relative viability,A-427; first compound 0.1581 µM,1.01
same,relative viability,A-427; first compound 0.5 µM,0.915
same,relative viability,NCI-H460; first compound 0.005 µM,0.805
same,relative viability,NCI-H460; first compound 0.01581 µM,0.915
same,relative viability,NCI-H460; first compound 0.05 µM,0.979
same,relative viability,NCI-H460; first compound 0.1581 µM,0.894
same,relative viability,NCI-H460; first compound 0.5 µM,0.874
same,relative viability,NCI-H441; first compound 0.005 µM,0.657
same,relative viability,NCI-H441; first compound 0.01581 µM,0.865
same,relative viability,NCI-H441; first compound 0.05 µM,0.734
same,relative viability,NCI-H441; first compound 0.1581 µM,0.764
same,relative viability,NCI-H441; first compound 0.5 µM,0.621
same,relative viability,LCLC-97TM1; first compound 0.005 µM,0.358
same,relative viability,LCLC-97TM1; first compound 0.01581 µM,0.337
same,relative viability,LCLC-97TM1; first compound 0.05 µM,0.294
same,relative viability,LCLC-97TM1; first compound 0.1581 µM,0.333
same,relative viability,LCLC-97TM1; first compound 0.5 µM,0.381
same,relative viability,LC-2-ad; first compound 0.005 µM,0.422
same,relative viability,LC-2-ad; first compound 0.01581 µM,0.489
same,relative viability,LC-2-ad; first compound 0.05 µM,0.538
same,relative viability,LC-2-ad; first compound 0.1581 µM,0.429
same,relative viability,LC-2-ad; first compound 0.5 µM,0.575
same,relative viability,ABC-1; first compound 0.005 µM,1.19
same,relative viability,ABC-1; first compound 0.01581 µM,1.4
same,relative viability,ABC-1; first compound 0.05 µM,1.19
same,relative viability,ABC-1; first compound 0.1581 µM,1.14
same,relative viability,ABC-1; first compound 0.5 µM,0.983
same,relative viability,NCI-H596; first compound 0.005 µM,1.02
same,relative viability,NCI-H596; first compound 0.01581 µM,0.985
same,relative viability,NCI-H596; first compound 0.05 µM,0.802
same,relative viability,NCI-H596; first compound 0.1581 µM,1.02
same,relative viability,NCI-H596; first compound 0.5 µM,1.01
same,relative viability,H3255; first compound 0.005 µM,0.902
same,relative viability,H3255; first compound 0.01581 µM,1.06
same,relative viability,H3255; first compound 0.05 µM,0.807
same,relative viability,H3255; first compound 0.1581 µM,0.891
same,relative viability,H3255; first compound 0.5 µM,0.835
same,relative viability,NCI-H650; first compound 0.005 µM,0.636
same,relative viability,NCI-H650; first compound 0.01581 µM,0.699
same,relative viability,NCI-H650; first compound 0.05 µM,0.814
same,relative viability,NCI-H650; first compound 0.1581 µM,0.707
same,relative viability,NCI-H650; first compound 0.5 µM,0.805
same,relative viability,NCI-H1651; first compound 0.005 µM,0.877
same,relative viability,NCI-H1651; first compound 0.01581 µM,0.939
same,relative viability,NCI-H1651; first compound 0.05 µM,0.78
same,relative viability,NCI-H1651; first compound 0.1581 µM,0.821
same,relative viability,NCI-H1651; first compound 0.5 µM,0.839
same,relative viability,NCI-H1792; first compound 0.005 µM,0.996
same,relative viability,NCI-H1792; first compound 0.01581 µM,1.04
same,relative viability,NCI-H1792; first compound 0.05 µM,0.911
same,relative viability,NCI-H1792; first compound 0.1581 µM,1
same,relative viability,NCI-H1792; first compound 0.5 µM,0.946
same,relative viability,NCI-H2087; first compound 0.005 µM,0.911
same,relative viability,NCI-H2087; first compound 0.01581 µM,0.766
same,relative viability,NCI-H2087; first compound 0.05 µM,0.873
same,relative viability,NCI-H2087; first compound 0.1581 µM,0.892
same,relative viability,NCI-H2087; first compound 0.5 µM,0.976
